Experimental data as given in patent publication US20260226493A1, “HERBICIDE RESISTANT PLANTS” (SYNGENTA CROP PROTECTION AG, priority 2023, published 2026).

Assays:
[1] = target: T1, Arabidopsis thaliana BioDA variant enzymes (Arabidopsis thaliana, UniProt B0F481, C388D); experiment: biochemical
T1 construct: with the predicted N-terminal mitochondrial transit peptide removed; 6xHis-tag (N); thrombin cleavage site (N); made in house; host or cells: E. coli BL21 (DE3) bioA
Protocol: (§1) These plasmids were then expressed in E. coli BL21 (DE3) bioA with 50 μg/mL kanamycin and 25 μg/mL chloramphenicol selection. Overnight cultures grown at 37° C. were used to inoculate 8×500 mL AIM in shake flasks at a ratio of 1:100. Cultures were grown at 37° C., 200 rpm for 3.5 hours and then overnight at 20° C. Cells were harvested by centrifugation for 30 minutes at 10 000 g. Cells were stored at −80° C. until extraction. 30 g of cell pellet from was thawed in 120 mL of IMAC buffer A (20 mM HEPES pH7.5, 25 mM imidazole, 500 mM sodium chloride, 0.15 mM pyridoxal phosphate, 0.5 mM TCEP, 1× complete Protease Inhibitor Tablet (Roche)). The resuspension was passed through a cell disrupter at 18 000 PSI and centrifuged at 50 000 g for 25 minutes at 4° C. The His-tagged BIO3-BIO1 protein was purified from the extract supernatant on an AKTA avant chromatography system (Cytiva) using a HisTrap FF column and eluted in IMAC buffer B ((20 mM HEPES pH7.5, 500 mM imidazole, 500 mM sodium chloride, 0.15 mM pyridoxal phosphate, 0.5 mM TCEP) followed by SEC using a HiLoad 26/60 Superdex200 column in SEC buffer (25 mM HEPES pH7.5, 150 mM sodium chloride, 0.15 mM pyridoxal phosphate, 0.5 mM TCEP). Protein concentration was measured and calculated using the absorbance at 280 nm. Extracts were diluted 1 in 4 and 10 uL was analysed by SDS PAGE.
(§2) To measure BIO3-BIO1 mutant enzyme activity in the presence of herbicide, herbicides were incubated with 20 μL of enzyme mix (100 mM EPPS pH 8.6, 0.1 mM pyridoxal phosphate, 0.1 mg/mL BSA, 50 nM BIO3-BIO1 enzyme) for 10 minutes at 20° C. in a well of a 96-well half-area black plate, followed by the addition of 20 μL of substrate mix (final concentration of 100 mM EPPS pH 8.6, 0.1 mM pyridoxal phosphate, 0.1 mg/mL BSA, 100 μM spermidine, 20 μM KAPA, 100 mM NaCO3) and further incubation for 75 minutes at 20° C. The reaction was terminated by the addition of 50 μL of derivatisation mix (final concentration of 250 mM borate NaOH pH 9.4, 3.6 mM o-phthalaldehyde, 7 mM β-mercaptoethanol, 17% (v/v) ethanol, 3.6% (v/v) methanol). The fluorescent product produced by the reaction of DAPA with o-phthalaldehyde and 7 mM β-mercaptoethanol was measured at 470 nm after excitation at 410 nm.
(§3) For IC50 calculations, appropriate dose responses of compounds L, M, B, K and G were used. Calculated percentage inhibitions were then input into GraphPad Prism 7 and IC50s calculated using the non-linear regression (vs. normalised response) equation.

[2] = target: T2, Arabidopsis thaliana BioDA variant enzymes (Arabidopsis thaliana, UniProt B0F481); experiment: biochemical; conditions: WT Arabidopsis thaliana BioDA (SEQ ID NO 294); read-out: IC50
T2 construct: with the predicted N-terminal mitochondrial transit peptide removed; 6xHis-tag (N); thrombin cleavage site (N); made in house; host or cells: E. coli BL21 (DE3) bioA
Protocol: as §1, §2, §3

T1 sequence (B0F481 24-833 C388D): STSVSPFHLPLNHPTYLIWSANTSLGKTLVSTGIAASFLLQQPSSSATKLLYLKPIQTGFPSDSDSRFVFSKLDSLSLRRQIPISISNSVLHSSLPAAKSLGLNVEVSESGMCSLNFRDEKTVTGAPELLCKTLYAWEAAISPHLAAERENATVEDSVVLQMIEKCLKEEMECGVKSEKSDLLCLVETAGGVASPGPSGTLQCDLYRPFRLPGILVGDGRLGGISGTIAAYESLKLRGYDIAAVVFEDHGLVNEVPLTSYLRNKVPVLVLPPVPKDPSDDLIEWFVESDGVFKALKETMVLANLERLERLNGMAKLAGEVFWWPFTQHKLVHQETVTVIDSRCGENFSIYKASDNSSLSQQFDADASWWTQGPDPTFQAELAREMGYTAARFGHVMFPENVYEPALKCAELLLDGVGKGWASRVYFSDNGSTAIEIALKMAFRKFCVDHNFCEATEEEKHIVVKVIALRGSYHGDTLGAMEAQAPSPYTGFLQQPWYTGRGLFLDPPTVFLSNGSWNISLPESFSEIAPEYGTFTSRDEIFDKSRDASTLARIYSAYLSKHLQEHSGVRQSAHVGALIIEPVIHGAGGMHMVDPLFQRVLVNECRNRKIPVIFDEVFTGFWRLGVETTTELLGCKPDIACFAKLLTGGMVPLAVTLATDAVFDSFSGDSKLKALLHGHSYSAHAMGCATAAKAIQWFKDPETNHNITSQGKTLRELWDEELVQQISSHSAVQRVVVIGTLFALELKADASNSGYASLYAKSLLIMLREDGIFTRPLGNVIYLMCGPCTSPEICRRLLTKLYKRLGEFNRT

Row | SMILES | IC50 [1] [µM] | IC50 [2] [µM]
1 | CC(O)C(N)CCCCC(=O)O.Cl (stereo not shown) [Compound B, [5-carboxy-1-(1-hydroxyethyl)pentyl]ammonium chloride] | 29.2 | 2.81
2 | CCn1c(Cn2ccc(C(F)(F)F)n2)cc(=O)c(C(=O)O)c1-c1ccc(Cl)c(Cl)c1 [Compound L, 2-(3,4-dichlorophenyl)-1-ethyl-4-oxo-6-[[3-(trifluoromethyl)pyrazol-1-yl]methyl]pyridine-3-carboxylic acid] | 100 | 0.145
